What was measured:
Assay type in all cases: biochemical
[1] = molecular target: T1, PI3KCD (PI3K delta) (Homo sapiens, UniProt O00329); assay: HTRF PI3K kinase assay; conditions: PIP2 substrate, ATP; 10 min pre-incubation, 30 min, room temperature
T1 construct: gene PIK3CD; enzyme used with Merck Millipore PI3K HTRF kit; with Phosphatidylinositol 3-kinase regulatory subunit alpha

[2] = molecular target: T2, PI3KCG (PI3K gamma) (Homo sapiens, UniProt P48736); assay: HTRF PI3K kinase assay; conditions: PIP2 substrate, ATP; 10 min pre-incubation, 30 min, room temperature
T2 construct: gene PIK3CG; enzyme used with Merck Millipore PI3K HTRF kit
T2 sequence (P48736 whole entry): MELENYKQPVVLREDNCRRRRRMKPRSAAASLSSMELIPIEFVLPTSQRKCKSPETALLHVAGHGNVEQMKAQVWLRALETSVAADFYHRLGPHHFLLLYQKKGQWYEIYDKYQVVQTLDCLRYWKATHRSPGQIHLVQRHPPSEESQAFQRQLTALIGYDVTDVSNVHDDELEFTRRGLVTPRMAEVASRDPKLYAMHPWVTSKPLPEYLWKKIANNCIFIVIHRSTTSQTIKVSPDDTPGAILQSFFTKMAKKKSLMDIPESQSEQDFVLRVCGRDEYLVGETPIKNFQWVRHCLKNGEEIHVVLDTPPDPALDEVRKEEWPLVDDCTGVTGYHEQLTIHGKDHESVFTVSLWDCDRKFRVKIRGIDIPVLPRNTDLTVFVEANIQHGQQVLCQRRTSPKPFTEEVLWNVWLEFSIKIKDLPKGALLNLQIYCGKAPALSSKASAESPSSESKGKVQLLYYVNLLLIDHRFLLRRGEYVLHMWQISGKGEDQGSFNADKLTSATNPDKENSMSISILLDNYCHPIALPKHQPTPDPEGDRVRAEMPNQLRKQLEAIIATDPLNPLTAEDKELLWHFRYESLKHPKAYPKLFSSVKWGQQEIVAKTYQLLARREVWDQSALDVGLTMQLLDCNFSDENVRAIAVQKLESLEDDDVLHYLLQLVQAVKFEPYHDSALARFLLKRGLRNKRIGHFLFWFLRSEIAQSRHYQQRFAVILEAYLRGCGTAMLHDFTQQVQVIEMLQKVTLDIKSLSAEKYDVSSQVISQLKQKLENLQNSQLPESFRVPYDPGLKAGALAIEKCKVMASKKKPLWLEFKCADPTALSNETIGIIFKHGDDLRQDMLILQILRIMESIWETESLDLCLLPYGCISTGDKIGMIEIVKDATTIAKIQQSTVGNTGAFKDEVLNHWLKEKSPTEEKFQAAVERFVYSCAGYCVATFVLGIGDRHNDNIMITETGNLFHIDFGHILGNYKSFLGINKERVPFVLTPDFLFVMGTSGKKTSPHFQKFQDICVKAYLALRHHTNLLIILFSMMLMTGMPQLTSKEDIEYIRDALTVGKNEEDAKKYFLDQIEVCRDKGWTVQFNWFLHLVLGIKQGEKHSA

[3] = molecular target: T3, BRAF^V600E (B-Raf^V600E) (Homo sapiens, UniProt P15056, V600E); assay: luminescence kinase assay (Kinase-Glo Max); conditions: 500 µM ATP, Raf substrate, 45 min, 30°C
T3 construct: enzyme of BPS Bioscience B-Raf V600E assay kit
T3 sequence (P15056 2-766 V600E): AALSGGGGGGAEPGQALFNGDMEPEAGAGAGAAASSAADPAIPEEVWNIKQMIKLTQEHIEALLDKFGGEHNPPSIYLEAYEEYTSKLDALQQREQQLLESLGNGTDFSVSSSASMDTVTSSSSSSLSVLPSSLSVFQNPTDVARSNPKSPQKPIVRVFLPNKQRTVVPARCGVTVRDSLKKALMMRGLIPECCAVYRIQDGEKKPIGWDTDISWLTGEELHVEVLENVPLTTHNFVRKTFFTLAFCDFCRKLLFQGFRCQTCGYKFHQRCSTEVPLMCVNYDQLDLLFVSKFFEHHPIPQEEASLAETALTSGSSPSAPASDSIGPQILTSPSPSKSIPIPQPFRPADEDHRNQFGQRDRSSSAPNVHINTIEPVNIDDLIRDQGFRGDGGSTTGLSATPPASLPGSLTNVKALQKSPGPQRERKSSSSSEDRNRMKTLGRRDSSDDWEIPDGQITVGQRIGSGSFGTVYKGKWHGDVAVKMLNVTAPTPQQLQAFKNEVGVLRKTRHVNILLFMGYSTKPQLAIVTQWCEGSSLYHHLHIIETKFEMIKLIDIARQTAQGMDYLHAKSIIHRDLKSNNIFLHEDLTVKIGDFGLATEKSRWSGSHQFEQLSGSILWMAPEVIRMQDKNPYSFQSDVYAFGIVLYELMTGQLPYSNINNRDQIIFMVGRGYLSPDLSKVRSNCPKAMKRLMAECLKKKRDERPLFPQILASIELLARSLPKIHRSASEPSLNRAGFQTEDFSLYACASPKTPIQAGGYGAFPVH

T1 sequence (O00329 whole entry): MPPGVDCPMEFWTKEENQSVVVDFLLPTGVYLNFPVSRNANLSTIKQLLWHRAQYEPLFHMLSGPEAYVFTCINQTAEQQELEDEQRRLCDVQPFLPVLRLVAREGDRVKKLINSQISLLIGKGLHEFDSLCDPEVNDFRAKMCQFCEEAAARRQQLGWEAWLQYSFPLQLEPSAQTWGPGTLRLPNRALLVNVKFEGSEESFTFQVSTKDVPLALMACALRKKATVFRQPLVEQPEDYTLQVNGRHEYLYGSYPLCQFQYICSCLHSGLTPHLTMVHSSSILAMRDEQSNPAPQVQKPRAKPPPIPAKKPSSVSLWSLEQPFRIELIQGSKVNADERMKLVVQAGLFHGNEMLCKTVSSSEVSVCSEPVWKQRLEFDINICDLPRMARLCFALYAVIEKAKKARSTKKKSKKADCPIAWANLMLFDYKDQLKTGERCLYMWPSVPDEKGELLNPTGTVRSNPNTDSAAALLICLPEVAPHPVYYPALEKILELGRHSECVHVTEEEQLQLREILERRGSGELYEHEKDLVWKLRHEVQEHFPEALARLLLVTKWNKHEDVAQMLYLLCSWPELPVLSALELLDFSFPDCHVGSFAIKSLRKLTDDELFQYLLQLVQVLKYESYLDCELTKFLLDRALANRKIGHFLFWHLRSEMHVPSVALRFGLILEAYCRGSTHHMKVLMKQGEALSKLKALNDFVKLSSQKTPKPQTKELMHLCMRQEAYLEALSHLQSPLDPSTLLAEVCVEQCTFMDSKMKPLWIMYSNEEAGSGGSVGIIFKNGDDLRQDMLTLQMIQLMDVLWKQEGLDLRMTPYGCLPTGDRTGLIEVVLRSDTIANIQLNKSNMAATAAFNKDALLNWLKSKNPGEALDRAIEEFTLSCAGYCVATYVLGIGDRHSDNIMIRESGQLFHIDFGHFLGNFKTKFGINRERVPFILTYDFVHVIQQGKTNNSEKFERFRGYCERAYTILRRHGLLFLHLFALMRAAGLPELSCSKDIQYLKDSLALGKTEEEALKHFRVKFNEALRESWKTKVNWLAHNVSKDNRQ
T1 sequence (P27986 2-724 partner): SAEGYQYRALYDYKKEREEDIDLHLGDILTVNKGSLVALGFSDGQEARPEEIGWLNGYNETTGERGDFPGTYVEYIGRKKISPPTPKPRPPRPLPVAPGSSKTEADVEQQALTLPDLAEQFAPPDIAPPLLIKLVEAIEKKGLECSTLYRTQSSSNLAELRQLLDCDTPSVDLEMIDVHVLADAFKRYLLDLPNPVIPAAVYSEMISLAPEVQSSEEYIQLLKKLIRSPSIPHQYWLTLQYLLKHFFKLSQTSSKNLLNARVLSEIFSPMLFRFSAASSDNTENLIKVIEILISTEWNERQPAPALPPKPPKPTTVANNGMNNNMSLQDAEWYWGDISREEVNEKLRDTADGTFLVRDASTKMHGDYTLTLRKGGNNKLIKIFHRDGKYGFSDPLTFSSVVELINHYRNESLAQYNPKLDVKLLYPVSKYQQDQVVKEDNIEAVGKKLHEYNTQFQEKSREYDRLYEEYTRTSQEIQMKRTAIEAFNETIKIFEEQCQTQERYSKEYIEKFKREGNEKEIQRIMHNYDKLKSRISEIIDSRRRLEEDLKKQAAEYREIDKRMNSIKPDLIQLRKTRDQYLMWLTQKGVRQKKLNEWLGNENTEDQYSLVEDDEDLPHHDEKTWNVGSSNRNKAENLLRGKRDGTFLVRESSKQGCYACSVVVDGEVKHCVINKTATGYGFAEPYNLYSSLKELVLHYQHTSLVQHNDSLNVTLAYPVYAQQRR

- IC50 [1]: 160 nM
- IC50 [2]: 75.8 nM
- IC50 [3]: 70.8 nM
SMILES: Cc1cc(C)c(CC(=O)N2C[C@@H]3CC(=O)NCCN(C)C(=O)c4cccn(c4=O)Cc4cn(nn4)[C@@H]3C2)c(C)c1 (relative stereo) [CB-006-3, rel-(17aS,20aS)-19-(mesitylacetyl)-12-methyl-12,13,14,15,17,17a,18,19,20,20a-decahydro-6,10-methano-1,4-methenopyrrolo[3,4-r] [1,2,3,6,12,15]hexaazacyclononadecine-11,16,21-trione]

— paper PMC10207986, “Computational high-throughput screening and in vitro approaches identify CB-006-3; A novel PI3K-BRAF^V600E dual targeted inhibitor against melanoma” (Oncology Research, 2022)
